pIC50: −log10 of the molar value.
Columns and labels:
Huh7 cells = assay: HCC xenograft model (Huh7 cells in Balb/c nude mice); assay type: in vivo, mouse; conditions: 3 weeks
Method: (§1) Balb/c Nude mice, 5-6 weeks old, were inoculated with 1×10^7 Huh7 cells in 0.2 ml volume of Matrigel/DMEM mix. Since not every mouse developed a tumor after the inoculation of HCC cells, only those with visible tumors (about 8 weeks after inoculation) were used for subsequent experiment. The tumor-bearing mice were randomly divided to the control and the treatment group. (n=3), respectively. Mice in the treatment group had free access to drinking water containing DBZIM (2 grams/liter) only, while mice in the control group had free access to Water only. The compound treatment lasted for 3 weeks. The tumor size was measured weekly, and the tumor volume was calculated using the formula: 0.52×width^2×length.
as §1, with “group” for “group.”, “compound 9 (IBN-9) at 0.6 g/l or 1.5 g/l” for “DBZIM (2 grams/liter)”, “water” for “Water”

MKN 28 = assay: Growth inhibition assay (MTT), MKN 28; assay type: cell-based, human; conditions: MKN 28, 72 h
Method: (§2) The percentage of growth inhibition was determined by using a MTT assay to measure viable cells. For the MTT assay, 1×10^3 cells per well were cultured in 96-well plates and treated with 0 to 100 μM of various types of IMSs for 72 h. After incubation for specified times at 37° C. in a humidified incubator, culture medium replaced with 10 μL of MTT reagent (5 mg/mL) contains 100 μL medium was added to each well and further incubated for 4 h. The reaction was stopped by adding 100 μL of DMSO. Absorbance was measured at 570 nm on a micro plate reader (SpectroMax 190, Molecular Devices). Data were presented from three separate experiments, and the percentage of IMSs induced cell growth inhibition was determined where DMSO-treated cells (control) were taken as 100%.
(§3) First, the cytotoxic effect of these drugs on these cells was investigated using the MTT assay. Cells were seeded into 96 well plates and treated with increasing concentrations of these synthetic organic molecules for 72 h, and then the cytotoxic effect was measured.

MDAMB231 = assay: Growth inhibition assay (MTT), MDAMB231; assay type: cell-based, human; conditions: MDAMB231, 72 h
Method: as §2, §3

MCF-10A = assay: Growth inhibition assay (MTT), MCF-10A; conditions: 72 h
Method: as §2, §3

CC(=O)Oc1ccc(Cn2cc[n+](-c3c(C)cc(C)cc3C)c2)cc1.[Cl-] [compound 9, 1-(2,4,6-trimethylphenyl)-3-(4-acetate-benzyl)-imidazolium chloride]
reduction of tumor volume (Huh7 cells; 0.6 g/l in drinking water): 43% | body weight or gross pathology (Huh7 cells; 0.6 g/l or 1.5 g/l in drinking water): No change in body weight or gross pathology | reduction of tumor volume (Huh7 cells; 1.5 g/l in drinking water): 62% | pIC50 (MKN 28): 5.00 | pIC50 (MDAMB231): 4.70 | IC50 in normal breast epithelial cells (MCF-10A): no IC50

Source: patent US9072729B2, “Method for treating fibrosis and cancer with imidazolium and imidazolinium compounds” (Agency for Science, Technology and Research, priority 2008, dated 2015)
